Patent US12550894B2, “Insecticidal formulation for vector and pest control with increased contact efficacy” (priority 2018, dated 2026)

Key:
Assay in all cases: Long term contact efficacy against mosquitos (example 12)
Assay type in all cases: in vivo
Conditions in all cases: glazed tiles, 1 day after treatment
Anopheles funestus = system: Anopheles funestus
From the text: (§1) Glazed tiles have been treated with the WP 10 formulations as described in example 9 based on 4-[(5S)-5-(3,5-dichloro-4-fluorophenyl)-5-(trifluoromethyl)-4,5-dihydro-1,2-oxazol-3-yl]-N-[(4R)-2-ethyl-3-oxo-1,2-oxazolidin-4-yl]-2-methylbenzamide as described in Example 4 and then stored at ambient conditions. […] The contact bioassays have been conducted as outlined in example 9.

Culex quinque fasciatus = system: Culex quinque fasciatus
From the text: as §1

Aedes Aegypti = system: Aedes Aegypti
From the text: as §1

CCN1OC[C@@H](NC(=O)c2ccc(C3=NO[C@@](c4cc(Cl)c(F)c(Cl)c4)(C(F)(F)F)C3)cc2C)C1=O [Reference crystalline spray, 4-[(5S)-5-(3,5-dichloro-4-fluorophenyl)-5-(trifluoromethyl)-4,5-dihydro-1,2-oxazol-3-yl]-N-[(4R)-2-ethyl-3-oxo-1,2-oxazolidin-4-yl]-2-methylbenzamide]
Mortality [%] Anopheles funestus 24 h (Anopheles funestus; 0.8 mg a.i./m^2): 0% | Mortality [%] Anopheles funestus 24 h (Anopheles funestus; 4 mg a.i./m^2): 30% | Mortality [%] Anopheles funestus 24 h (Anopheles funestus; 20 mg a.i./m^2): 90% | Mortality [%] Culex quinque fasciatus 24 h (Culex quinque fasciatus; 0.8 mg a.i./m^2): 25% | Mortality [%] Culex quinque fasciatus 24 h (Culex quinque fasciatus; 4 mg a.i./m^2): 88% | Mortality [%] Culex quinque fasciatus 24 h (Culex quinque fasciatus; 20 mg a.i./m^2): 100% | Mortality [%] Aedes Aegypti 24 h (Aedes Aegypti; 0.8 mg a.i./m^2): 0% | Mortality [%] Aedes Aegypti 24 h (Aedes Aegypti; 4 mg a.i./m^2): 89% | Mortality [%] Aedes Aegypti 24 h (Aedes Aegypti; 20 mg a.i./m^2): 100%
